pIC50: −log10 of the molar value.
Key:
[1] = target: T1, hERG potassium ion channel (Homo sapiens, UniProt Q12809); assay: hERG whole-cell patch clamp in HEK-293 cells; assay type: cell-based; settings: HEK-293 cells stably expressing hERG, pH 7.4, inhibition for hERG at 30 μM concentration
T1 construct: expressed in transfected cells; host or cells: HEK-293
Description: This study evaluated the cardiac safety of the compounds according to the present disclosure, and an HEK-293 cell line stably expressing hERG potassium ion channel was used for detection.
Procedures: Test compound stocks were diluted in DMSO into 0.3 mM, 1 mM, and 3 mM dilutions respectively. […] The working solutions of the test compounds were ultrasonically treated for 20 min.
Patch clamping: Under an inverted microscope, recording electrodes were controlled by micromanipulator to contact with the cell. A negative voltage was applied to create a G-omega shaped connection. After forming the G-omega shaped connection, a rapid capacitance compensation was given. Under the continuous negative voltage, the cell membrane was ruptured to form a whole-cell recording configuration. In the whole-cell recording configuration, slow capacitance compensation was given, and the values of membrane capacitance and series resistance were recorded.
Voltage stimulation scheme for cellular hERG potassium current: The cell membrane clamping voltage was −80 mV; the voltage was first elevated from −80 mV to +30 mV, held for 2.5 sec, and rapidly raised to and held at −50 mV for 4 sec, thus exciting the hERG channel tail current. Data acquisition was performed every 10 sec. −50 mV was used for drain current detection.
The cover glasses planted with cells were placed in the recording chamber of an inverted microscope. Negative control and test compounds flowed through the recording chamber in an ascending order of concentration by gravity perfusion to quickly act on the cells. During the recording, the extracellular buffer was continuously circulated by a vacuum pump. The current detected in a cell in the negative control was used as the background for the cell. Each concentration was allowed to act for 5 min or until the current was stabilized. All experiments were performed at room temperature.
The current of each concentration was normalized first
and then the inhibition rate was calculated
Basic statistics were calculated for each concentration, including mean, standard deviation (SD), standard error (SE), and replicates (n). The dose-dependent curve was fitted with the following equation and the half maximal inhibitory concentration (IC50) of the test compounds was calculated:
wherein C represents the test compound concentration, IC50 represents the half maximal inhibitory concentration, and h represents the Hill coefficient. Curve fitting and calculation of IC50 were done by GraphPad Prism 5.0 software.

[2] = test system: IL-6 release in LPS-induced Balb/c female mice; assay: Inhibition of IL-6 release in LPS-induced Balb/c female mice; assay type: in vivo, mouse; design: concentration or dose not given beside the values; settings: administered 5 h before LPS induction, serum
Description: Objective of the test: To determine the inhibitory effect of the compounds by measuring the plasma IL-6 concentration in a Balb/c mouse model with LPS-induced inflammation.
2.1 Prepared mouse serum samples (sample batch no. 20181218)
4.1 Reagent kit was equilibrated at room temperature (25-28° C.) for 20 min. After each detection, the remaining reagents were stored at 4° C.
4.3 Preparing reference standard: 1 vial of reference standard substance was added with labeled volume of reference standard diluent. The mixtures were incubated for 15 min at room temperature. Then the mixtures were gently mixed to completely dissolve the substance to prepare a reference standard stock at a final concentration of 1000 μg/mL.
4.4 Dilution of samples: The sample in each group was diluted by […], i.e., a 2-fold dilution with sample assay buffer followed by another two-fold dilution with standard diluent.
4.5 The diluted samples or standards of different concentrations were added into corresponding wells at 100 μL/well respectively, and a background correcting well (or a blank well) was set by adding only TMB buffer and terminating solution. The wells were sealed with a transparent film and incubated at room temperature for 120 min.
4.6 The plate was subjected to 5 washes, each with 300 μL of washing buffer for 15-30 sec. The plate was dried on thick absorbent paper after the last wash.
4.7 Biotinylated antibody was added at 100 μL/well (Note: the biotinylated antibody was prepared in advance and could be used directly without further dilution). The wells were sealed with a transparent film and incubated at room temperature for 60 min.
4.8 The plate was subjected to 5 washes, each with 300 μL of washing buffer for 15-30 sec. The plate was dried on thick absorbent paper after the last wash.
4.9 Horseradish peroxidase-labeled streptavidin was added at 100 μL/well. The wells were sealed with a white film and incubated away from light at room temperature for 20 min.
4.10 The plate was subjected to 5 washes, each with 300 μL of washing buffer for 15-30 sec. The plate was dried on thick absorbent paper after the last wash.
4.11 The chromogenic reagent TMB was added 100 μL/well. The wells were sealed with a white film and incubated away from light at room temperature for 20 min.
4.12 The terminating solution was added at 50 μL/well and A450 value was measured right after mixing.

[3] = test system: Salmonella typhimurium TA98 and TA100; assay: Mini-Ames assay in Salmonella typhimurium; settings: TA98 and TA100, with or without S9 mixture
Description: S9 homogenate: β-napthoflavone and phenobarbital induced rat liver microsome homogenate S9 fraction was used as the metabolic activation system for this assay. S9 was purchased from CHI Scientific, Inc. and stored in a freezer at −75° C. before use.
S9 mixture and mock mixture: S9 was quickly thawed to prepare a liquid mixture before the assay. 0.2 M PBS phosphate buffer (pH 7.4) was used as the mock mixture.
The overnight bacterial cultures were prepared from a stock of the strains. 80 μL of the stock was added to 20 mL of broth. For strains TA98 and TA100, 62.5 μL of ampicillin at a concentration of 0.8% were added per 10 mL of broth #2. The inoculated broth was then incubated on a thermostatic shaker overnight at 37° C. with a rotation speed of 160±10 rpm. The overnight cultures over the target absorbance were stored at 2-8° C. before use. The overnight cultures were used for genotyping and mutation tests.
The experimental system was exposed to the test compounds on plates in plate incorporation assay (Ames et al., 1975; N. Flamand et al., 2000).

CYP2C9 = target: T2, CYP2C9 (Homo sapiens, UniProt P11712); assay: CYP450 inhibition in human liver microsomes, CYP2C9; assay type: in vitro ADME; settings: human liver microsomes, probe diclofenac; read-out: IC50, subtype 2C9
T2 construct: tissue Corning (USA); host or cells: mixed human liver microsomes
Description: (§1) This study was intended to investigate the inhibitory effect of the test compounds on five major CYP450 enzyme subtypes CYP1A2, 2C9, 2C19, 2D6 and 3A4 in human liver microsomes. The mixed human liver microsomes used in this assay were purchased from Corning (USA). The test compounds were co-incubated at 7 concentrations with human liver microsomes and five probe substrates (phenacetin for CYP1a2, diclofenac for CYP2C9, mephenytoin for CYP2C19, dextromethorphan for CYP2D6, midazolam for CYP3A4-M, mixed). The reaction was initiated by adding coenzyme NADPH, and terminated by adding acetonitrile containing internal standard. After the proteins were precipitated, the supernatant was centrifuged. The characteristic metabolites in the supernatant (acetaminophen for CYP1A2, 4-hydroxydiclofenac for CYP2C9, 4-hydroxymephenytoin for CYP2C19, dextrorphan for CYP2D6, 1-hydroxymidazolam for CYP3A4-M) were analyzed by LC-MS/MS. The influence of the test compounds on production of the characteristic metabolites was finally analyzed on the basis of the data obtained. A selective inhibitor (ketoconazole for CYP3A4-M) was used as positive control. All samples were tested in duplicate.

CYP3A4 = target: T3, CYP3A4 (Homo sapiens, UniProt P08684); assay: CYP450 inhibition in human liver microsomes, CYP3A4; assay type: in vitro ADME; settings: human liver microsomes, probe midazolam; read-out: IC50, subtype 3A4
T3 construct: tissue Corning (USA); host or cells: mixed human liver microsomes
Description: as §1

CYP2D6 = target: T4, CYP2D6 (Homo sapiens, UniProt P10635); assay: CYP450 inhibition in human liver microsomes, CYP2D6; assay type: in vitro ADME; settings: human liver microsomes, probe dextromethorphan; read-out: IC50, subtype 2D6
T4 construct: tissue Corning (USA); host or cells: mixed human liver microsomes
Description: as §1

T3 sequence (P08684 whole entry): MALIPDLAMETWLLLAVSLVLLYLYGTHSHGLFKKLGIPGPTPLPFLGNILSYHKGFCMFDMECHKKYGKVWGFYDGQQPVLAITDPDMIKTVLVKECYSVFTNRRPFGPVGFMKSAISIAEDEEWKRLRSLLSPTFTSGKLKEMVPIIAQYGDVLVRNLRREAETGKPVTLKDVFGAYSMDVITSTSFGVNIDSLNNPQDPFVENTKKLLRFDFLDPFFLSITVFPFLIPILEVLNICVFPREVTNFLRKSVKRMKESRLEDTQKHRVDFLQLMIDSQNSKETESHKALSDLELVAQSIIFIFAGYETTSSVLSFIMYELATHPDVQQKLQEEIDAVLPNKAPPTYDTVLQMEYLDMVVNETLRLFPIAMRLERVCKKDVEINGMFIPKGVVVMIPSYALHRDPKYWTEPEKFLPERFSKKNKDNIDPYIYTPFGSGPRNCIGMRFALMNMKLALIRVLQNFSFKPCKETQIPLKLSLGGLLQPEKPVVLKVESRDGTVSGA
T2 sequence (P11712 whole entry): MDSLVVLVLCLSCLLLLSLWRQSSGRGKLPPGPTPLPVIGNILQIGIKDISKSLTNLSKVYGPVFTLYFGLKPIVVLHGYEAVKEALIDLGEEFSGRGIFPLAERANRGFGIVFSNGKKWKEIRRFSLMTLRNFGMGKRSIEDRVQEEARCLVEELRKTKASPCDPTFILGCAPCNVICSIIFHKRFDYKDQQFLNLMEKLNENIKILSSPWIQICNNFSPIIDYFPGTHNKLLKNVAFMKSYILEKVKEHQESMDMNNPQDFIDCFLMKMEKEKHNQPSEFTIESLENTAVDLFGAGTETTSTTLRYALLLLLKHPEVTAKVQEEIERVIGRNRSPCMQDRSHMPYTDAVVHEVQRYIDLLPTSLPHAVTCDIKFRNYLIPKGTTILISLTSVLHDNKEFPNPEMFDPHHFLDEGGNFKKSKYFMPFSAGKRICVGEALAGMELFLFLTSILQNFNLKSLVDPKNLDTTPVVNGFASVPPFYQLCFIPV
T1 sequence (Q12809 whole entry): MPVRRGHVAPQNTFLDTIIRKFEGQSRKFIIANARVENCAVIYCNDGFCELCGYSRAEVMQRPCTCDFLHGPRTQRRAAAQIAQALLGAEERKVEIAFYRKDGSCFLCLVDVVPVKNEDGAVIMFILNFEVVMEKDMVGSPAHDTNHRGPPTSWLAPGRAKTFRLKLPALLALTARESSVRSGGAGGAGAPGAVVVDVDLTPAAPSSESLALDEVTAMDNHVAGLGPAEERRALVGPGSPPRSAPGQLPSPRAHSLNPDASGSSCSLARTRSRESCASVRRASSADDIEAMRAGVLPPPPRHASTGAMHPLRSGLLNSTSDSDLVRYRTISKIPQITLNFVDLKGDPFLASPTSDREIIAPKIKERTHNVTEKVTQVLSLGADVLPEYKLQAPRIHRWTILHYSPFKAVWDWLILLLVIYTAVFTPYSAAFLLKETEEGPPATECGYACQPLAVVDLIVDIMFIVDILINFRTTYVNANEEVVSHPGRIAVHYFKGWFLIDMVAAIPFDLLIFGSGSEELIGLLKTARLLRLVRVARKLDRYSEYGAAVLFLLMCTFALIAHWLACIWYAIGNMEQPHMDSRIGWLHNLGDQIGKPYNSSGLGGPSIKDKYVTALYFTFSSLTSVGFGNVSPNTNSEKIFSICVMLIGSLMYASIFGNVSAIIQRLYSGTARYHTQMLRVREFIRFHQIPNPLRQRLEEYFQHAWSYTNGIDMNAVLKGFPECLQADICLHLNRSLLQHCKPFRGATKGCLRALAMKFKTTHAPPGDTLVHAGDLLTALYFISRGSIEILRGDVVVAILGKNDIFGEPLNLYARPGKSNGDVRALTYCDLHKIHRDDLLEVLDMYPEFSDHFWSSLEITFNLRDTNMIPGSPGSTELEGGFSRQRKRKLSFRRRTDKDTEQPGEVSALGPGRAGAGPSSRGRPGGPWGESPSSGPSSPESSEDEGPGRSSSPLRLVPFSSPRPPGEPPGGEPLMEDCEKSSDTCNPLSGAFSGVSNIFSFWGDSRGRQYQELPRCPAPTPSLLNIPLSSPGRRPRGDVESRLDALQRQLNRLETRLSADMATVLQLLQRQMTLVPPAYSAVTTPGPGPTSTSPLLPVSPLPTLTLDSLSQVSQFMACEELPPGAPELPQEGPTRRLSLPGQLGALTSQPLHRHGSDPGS
T4 sequence (P10635 whole entry): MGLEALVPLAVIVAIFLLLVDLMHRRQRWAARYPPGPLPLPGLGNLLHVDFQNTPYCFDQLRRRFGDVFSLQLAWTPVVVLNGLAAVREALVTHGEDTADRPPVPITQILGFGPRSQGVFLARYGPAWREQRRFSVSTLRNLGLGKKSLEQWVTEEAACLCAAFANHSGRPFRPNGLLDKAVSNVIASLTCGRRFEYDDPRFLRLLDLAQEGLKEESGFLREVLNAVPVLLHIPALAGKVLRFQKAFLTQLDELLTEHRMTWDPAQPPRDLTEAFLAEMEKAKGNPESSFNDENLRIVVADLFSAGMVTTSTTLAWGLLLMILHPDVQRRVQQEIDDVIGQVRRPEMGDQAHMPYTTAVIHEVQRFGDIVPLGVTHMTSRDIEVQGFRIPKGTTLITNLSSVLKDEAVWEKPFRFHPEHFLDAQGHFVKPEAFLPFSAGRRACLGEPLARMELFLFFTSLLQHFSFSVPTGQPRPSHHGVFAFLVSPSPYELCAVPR

Compound	inhibition at 5 min, 30 µM [1] [%]	Inhibition rate of IL-6 [2] [%]	Mini-Ames result [3]	pIC50 (CYP2C9)	pIC50 (CYP3A4)	pIC50 (CYP2D6)
CN(C)c1cc2nn([C@H]3CC[C@H](O)CC3)cc2cc1NC(=O)c1cccc(C(F)(F)F)n1 [MY-004-153]	17.7					
COc1cc2nn([C@H]3CC[C@@](C)(O)CC3)cc2cc1NC(=O)c1cccc(C(F)(F)F)n1 [MY-004-126-2]	10.1	93.39	negative			
COc1cc2nn([C@H]3CC[C@](C)(O)CC3)cc2cc1NC(=O)c1cccc(C(F)(F)F)n1 [MY-004-126-1]	12.8	97.05		< 4.52	< 4.52	< 4.52
CN(C)c1cc2nn([C@H]3C[C@H](C(C)(C)O)C3)cc2cc1NC(=O)c1cccc(C(F)(F)F)n1 [MY-004-089]		94.33				
COc1cc2nn([C@H]3CC[C@H](O)CC3)cc2cc1NC(=O)c1cccc(C(F)(F)F)n1 [MY-004-127-1]	11.6	83.28	negative	< 4.52	< 4.52	< 4.52
CC(C)(O)c1cc2nn([C@H]3CC[C@](C)(O)CC3)cc2cc1NC(=O)c1cccc(C(C)(F)F)n1 [MY-004-165]				4.68	< 4.52	< 4.52

Reference: patent US20220204473A1, “COMPOUND AS IRAK INHIBITOR” (SHANGHAI MEIYUE BIOTECH DEVELOPMENT CO., LTD., priority 2018, published 2022)
